# Active and inactive are the calls of the source. The calls are words filed in the database; no cut-off is given here.
# How the values were obtained:
# Salmonella typhi [1] = experiment: Antibacterial activity against Salmonella typhi at 10 ug after 24 hrs by disc diffusion assay; format: functional, Salmonella enterica subsp. enterica serovar Typhi; conditions: Salmonella enterica, read-out: IZ
# Salmonella typhi [2] = experiment: Antibacterial activity against Salmonella typhi at 15 ug after 24 hrs by disc diffusion assay; format: functional, Salmonella enterica subsp. enterica serovar Typhi; conditions: Salmonella enterica, read-out: IZ
# Salmonella typhi [3] = experiment: Antibacterial activity against Salmonella typhi at 20 ug after 24 hrs by disc diffusion assay; format: functional, Salmonella enterica subsp. enterica serovar Typhi; conditions: Salmonella enterica, read-out: IZ
# Salmonella typhi [4] = experiment: Antibacterial activity against Salmonella typhi at 25 ug after 24 hrs by disc diffusion assay; format: functional, Salmonella enterica subsp. enterica serovar Typhi; conditions: Salmonella enterica, read-out: IZ
# Bacillus subtilis [5] = experiment: Antibacterial activity against Bacillus subtilis at 15 ug after 24 hrs by disc diffusion assay; format: functional; conditions: read-out: IZ
# Bacillus subtilis [6] = experiment: Antibacterial activity against Bacillus subtilis at 20 ug after 24 hrs by disc diffusion assay; format: functional; conditions: read-out: IZ
# Bacillus subtilis [7] = experiment: Antibacterial activity against Bacillus subtilis at 25 ug after 24 hrs by disc diffusion assay; format: functional; conditions: read-out: IZ
# Escherichia coli [8] = experiment: Inhibition of Escherichia coli DNA gyrase assessed as inhibition of DNA supercoiling activity using pBR322 DNA as substrate at […] after 3 hrs by agarose gel electrophoresis
# Escherichia coli [9] = experiment: Inhibition of Escherichia coli DNA gyrase -mediated DNA relaxation using pBR322 DNA as substrate at […] after 1 hrs by agarose gel electrophoresis
# Escherichia coli [10] = experiment: Inhibition of DNA gyrase mRNA expression in Escherichia coli measured up to 24 hrs by RT-PCR; format: functional, organism-based
# Staphylococcus aureus [11] = experiment: Antibacterial activity against Staphylococcus aureus after 18 to 20 hrs by broth micro dilution assay; format: functional
# Escherichia coli [12] = experiment: Antibacterial activity against Escherichia coli after 18 to 20 hrs by broth micro dilution assay; format: functional
# Klebsiella pneumoniae [13] = experiment: Antibacterial activity against Klebsiella pneumoniae after 18 to 20 hrs by broth micro dilution assay; format: functional
# Pseudomonas aeruginosa [14] = experiment: Antibacterial activity against Pseudomonas aeruginosa after 18 to 20 hrs by broth micro dilution assay; format: functional
# Salmonella typhi [15] = experiment: Antibacterial activity against Salmonella typhi after 18 to 20 hrs by broth micro dilution assay; format: functional, Salmonella enterica subsp. enterica serovar Typhi; conditions: Salmonella enterica
# Bacillus subtilis [16] = experiment: Antibacterial activity against Bacillus subtilis after 18 to 20 hrs by broth micro dilution assay; format: functional
# Staphylococcus aureus [17] = experiment: Antibacterial activity against Staphylococcus aureus at 5 ug after 24 hrs by disc diffusion assay; format: functional; conditions: read-out: IZ
# Staphylococcus aureus [18] = experiment: Antibacterial activity against Staphylococcus aureus at 10 ug after 24 hrs by disc diffusion assay; format: functional; conditions: read-out: IZ
# Staphylococcus aureus [19] = experiment: Antibacterial activity against Staphylococcus aureus at 15 ug after 24 hrs by disc diffusion assay; format: functional; conditions: read-out: IZ
# Staphylococcus aureus [20] = experiment: Antibacterial activity against Staphylococcus aureus at 20 ug after 24 hrs by disc diffusion assay; format: functional; conditions: read-out: IZ
# Staphylococcus aureus [21] = experiment: Antibacterial activity against Staphylococcus aureus at 25 ug after 24 hrs by disc diffusion assay; format: functional; conditions: read-out: IZ
# Escherichia coli [22] = experiment: Antibacterial activity against Escherichia coli at 5 ug after 24 hrs by disc diffusion assay; format: functional; conditions: read-out: IZ
# Escherichia coli [23] = experiment: Antibacterial activity against Escherichia coli at 10 ug after 24 hrs by disc diffusion assay; format: functional; conditions: read-out: IZ
# Escherichia coli [24] = experiment: Antibacterial activity against Escherichia coli at 15 ug after 24 hrs by disc diffusion assay; format: functional; conditions: read-out: IZ
# Escherichia coli [25] = experiment: Antibacterial activity against Escherichia coli at 20 ug after 24 hrs by disc diffusion assay; format: functional; conditions: read-out: IZ
# Escherichia coli [26] = experiment: Antibacterial activity against Escherichia coli at 25 ug after 24 hrs by disc diffusion assay; format: functional; conditions: read-out: IZ
# Pseudomonas aeruginosa [27] = experiment: Antibacterial activity against Pseudomonas aeruginosa at 5 ug after 24 hrs by disc diffusion assay; format: functional; conditions: read-out: IZ
# Pseudomonas aeruginosa [28] = experiment: Antibacterial activity against Pseudomonas aeruginosa at 10 ug after 24 hrs by disc diffusion assay; format: functional; conditions: read-out: IZ
# Pseudomonas aeruginosa [29] = experiment: Antibacterial activity against Pseudomonas aeruginosa at 15 ug after 24 hrs by disc diffusion assay; format: functional; conditions: read-out: IZ
# Pseudomonas aeruginosa [30] = experiment: Antibacterial activity against Pseudomonas aeruginosa at 20 ug after 24 hrs by disc diffusion assay; format: functional; conditions: read-out: IZ
# Pseudomonas aeruginosa [31] = experiment: Antibacterial activity against Pseudomonas aeruginosa at 25 ug after 24 hrs by disc diffusion assay; format: functional; conditions: read-out: IZ
# Klebsiella pneumoniae [32] = experiment: Antibacterial activity against Klebsiella pneumoniae at 5 ug after 24 hrs by disc diffusion assay; format: functional; conditions: read-out: IZ
# Klebsiella pneumoniae [33] = experiment: Antibacterial activity against Klebsiella pneumoniae at 10 ug after 24 hrs by disc diffusion assay; format: functional; conditions: read-out: IZ
# Klebsiella pneumoniae [34] = experiment: Antibacterial activity against Klebsiella pneumoniae at 15 ug after 24 hrs by disc diffusion assay; format: functional; conditions: read-out: IZ
# Klebsiella pneumoniae [35] = experiment: Antibacterial activity against Klebsiella pneumoniae at 20 ug after 24 hrs by disc diffusion assay; format: functional; conditions: read-out: IZ
# Klebsiella pneumoniae [36] = experiment: Antibacterial activity against Klebsiella pneumoniae at 25 ug after 24 hrs by disc diffusion assay; format: functional; conditions: read-out: IZ
# Salmonella typhi [37] = experiment: Antibacterial activity against Salmonella typhi at 5 ug after 24 hrs by disc diffusion assay; format: functional, Salmonella enterica subsp. enterica serovar Typhi; conditions: Salmonella enterica, read-out: IZ
structure (smiles),measurement,setting,value
CCC1[C@@H]2Nc3ccc(Cl)cc3C(C)(C)[C@H]2CN1OS(=O)(=O)c1ccc(C)cc1 (stereo partly specified),zone of inhibition at 10 µg/disc,Salmonella typhi [1],16 mm
same,zone of inhibition at 15 µg/disc,Salmonella typhi [2],18 mm
same,zone of inhibition at 20 µg/disc,Salmonella typhi [3],22 mm
same,zone of inhibition at 25 µg/disc,Salmonella typhi [4],24 mm
same,zone of inhibition at 15 µg/disc,Bacillus subtilis [5],6 mm
same,zone of inhibition at 20 µg/disc,Bacillus subtilis [6],7 mm
same,zone of inhibition at 25 µg/disc,Bacillus subtilis [7],9 mm
same,DNA gyrase inhibition (active/inactive),Escherichia coli [8],Active
same,inhibition,Escherichia coli [9],Active
same,inhibition of gyrase mRNA expression (active/not active),Escherichia coli [10],Active
same,MIC50,Staphylococcus aureus [11],128 µg/mL
same,MIC90,Staphylococcus aureus [11],128 µg/mL
same,MIC50,Escherichia coli [12],128 µg/mL
same,MIC90,Escherichia coli [12],128 µg/mL
same,MIC50,Klebsiella pneumoniae [13],128 µg/mL
same,MIC90,Klebsiella pneumoniae [13],128 µg/mL
same,MIC50,Pseudomonas aeruginosa [14],128 µg/mL
same,MIC90,Pseudomonas aeruginosa [14],128 µg/mL
same,MIC50,Salmonella typhi [15],128 µg/mL
same,MIC90,Salmonella typhi [15],128 µg/mL
same,MIC50,Bacillus subtilis [16],128 µg/mL
same,MIC90,Bacillus subtilis [16],128 µg/mL
same,zone of inhibition at 5 µg/disc,Staphylococcus aureus [17],20 mm
same,zone of inhibition at 10 µg/disc,Staphylococcus aureus [18],24 mm
same,zone of inhibition at 15 µg/disc,Staphylococcus aureus [19],26 mm
same,zone of inhibition at 20 µg/disc,Staphylococcus aureus [20],30 mm
same,zone of inhibition at 25 µg/disc,Staphylococcus aureus [21],36 mm
same,zone of inhibition at 5 µg/disc,Escherichia coli [22],10 mm
same,zone of inhibition at 10 µg/disc,Escherichia coli [23],16 mm
same,zone of inhibition at 15 µg/disc,Escherichia coli [24],18 mm
same,zone of inhibition at 20 µg/disc,Escherichia coli [25],20 mm
same,zone of inhibition at 25 µg/disc,Escherichia coli [26],23 mm
same,zone of inhibition at 5 µg/disc,Pseudomonas aeruginosa [27],10 mm
same,zone of inhibition at 10 µg/disc,Pseudomonas aeruginosa [28],14 mm
same,zone of inhibition at 15 µg/disc,Pseudomonas aeruginosa [29],16 mm
same,zone of inhibition at 20 µg/disc,Pseudomonas aeruginosa [30],20 mm
same,zone of inhibition at 25 µg/disc,Pseudomonas aeruginosa [31],23 mm
same,zone of inhibition at 5 µg/disc,Klebsiella pneumoniae [32],20 mm
same,zone of inhibition at 10 µg/disc,Klebsiella pneumoniae [33],26 mm
same,zone of inhibition at 15 µg/disc,Klebsiella pneumoniae [34],30 mm
same,zone of inhibition at 20 µg/disc,Klebsiella pneumoniae [35],34 mm
same,zone of inhibition at 25 µg/disc,Klebsiella pneumoniae [36],36 mm
same,zone of inhibition at 5 µg/disc,Salmonella typhi [37],10 mm
CCC1[C@@H]2Nc3ccccc3C(c3ccccc3)[C@H]2CN1OS(=O)(=O)c1ccc(C)cc1 (stereo partly specified),zone of inhibition at 10 µg/disc,Salmonella typhi [1],16 mm
same,zone of inhibition at 15 µg/disc,Salmonella typhi [2],18 mm
same,zone of inhibition at 20 µg/disc,Salmonella typhi [3],22 mm
same,zone of inhibition at 25 µg/disc,Salmonella typhi [4],24 mm
same,zone of inhibition at 15 µg/disc,Bacillus subtilis [5],6 mm
same,zone of inhibition at 20 µg/disc,Bacillus subtilis [6],7 mm
same,zone of inhibition at 25 µg/disc,Bacillus subtilis [7],9 mm
same,DNA gyrase inhibition (active/inactive),Escherichia coli [8],Active
same,inhibition,Escherichia coli [9],Active
same,inhibition of gyrase mRNA expression (active/not active),Escherichia coli [10],inactive
same,MIC50,Staphylococcus aureus [11],64 µg/mL
same,MIC90,Staphylococcus aureus [11],128 µg/mL
same,MIC50,Escherichia coli [12],64 µg/mL
same,MIC90,Escherichia coli [12],64 µg/mL
same,MIC50,Klebsiella pneumoniae [13],64 µg/mL
same,MIC90,Klebsiella pneumoniae [13],64 µg/mL
same,MIC50,Pseudomonas aeruginosa [14],64 µg/mL
same,MIC90,Pseudomonas aeruginosa [14],128 µg/mL
same,MIC50,Salmonella typhi [15],64 µg/mL
same,MIC90,Salmonella typhi [15],128 µg/mL
same,MIC50,Bacillus subtilis [16],64 µg/mL
same,MIC90,Bacillus subtilis [16],128 µg/mL
same,zone of inhibition at 5 µg/disc,Staphylococcus aureus [17],20 mm
same,zone of inhibition at 10 µg/disc,Staphylococcus aureus [18],24 mm
same,zone of inhibition at 15 µg/disc,Staphylococcus aureus [19],26 mm
same,zone of inhibition at 20 µg/disc,Staphylococcus aureus [20],30 mm
same,zone of inhibition at 25 µg/disc,Staphylococcus aureus [21],36 mm
same,zone of inhibition at 5 µg/disc,Escherichia coli [22],10 mm
same,zone of inhibition at 10 µg/disc,Escherichia coli [23],16 mm
same,zone of inhibition at 15 µg/disc,Escherichia coli [24],18 mm
same,zone of inhibition at 20 µg/disc,Escherichia coli [25],20 mm
same,zone of inhibition at 25 µg/disc,Escherichia coli [26],23 mm
same,zone of inhibition at 5 µg/disc,Pseudomonas aeruginosa [27],10 mm
same,zone of inhibition at 10 µg/disc,Pseudomonas aeruginosa [28],14 mm
same,zone of inhibition at 15 µg/disc,Pseudomonas aeruginosa [29],16 mm
same,zone of inhibition at 20 µg/disc,Pseudomonas aeruginosa [30],20 mm
same,zone of inhibition at 25 µg/disc,Pseudomonas aeruginosa [31],23 mm
same,zone of inhibition at 5 µg/disc,Klebsiella pneumoniae [32],20 mm
same,zone of inhibition at 10 µg/disc,Klebsiella pneumoniae [33],26 mm
same,zone of inhibition at 15 µg/disc,Klebsiella pneumoniae [34],30 mm
same,zone of inhibition at 20 µg/disc,Klebsiella pneumoniae [35],34 mm
same,zone of inhibition at 25 µg/disc,Klebsiella pneumoniae [36],36 mm
same,zone of inhibition at 5 µg/disc,Salmonella typhi [37],10 mm

# — ChEMBL document CHEMBL1781873, “Synthesis and antibacterial property of pyrrolopyrano quinolinones and pyrroloquinolines” (2011)
